Our source for the IC50 values is publication PMC7570625, “Design and Synthesis of a Novel NIR Celecoxib-Based Fluorescent Probe for Cyclooxygenase-2 Targeted Bioimaging in Tumor Cells” (Molecules, 2020).

This assay has as its target T1, COX-2 (Homo sapiens, UniProt P35354).
T1 construct: gene PTGS2
T1 sequence (P35354 18-604): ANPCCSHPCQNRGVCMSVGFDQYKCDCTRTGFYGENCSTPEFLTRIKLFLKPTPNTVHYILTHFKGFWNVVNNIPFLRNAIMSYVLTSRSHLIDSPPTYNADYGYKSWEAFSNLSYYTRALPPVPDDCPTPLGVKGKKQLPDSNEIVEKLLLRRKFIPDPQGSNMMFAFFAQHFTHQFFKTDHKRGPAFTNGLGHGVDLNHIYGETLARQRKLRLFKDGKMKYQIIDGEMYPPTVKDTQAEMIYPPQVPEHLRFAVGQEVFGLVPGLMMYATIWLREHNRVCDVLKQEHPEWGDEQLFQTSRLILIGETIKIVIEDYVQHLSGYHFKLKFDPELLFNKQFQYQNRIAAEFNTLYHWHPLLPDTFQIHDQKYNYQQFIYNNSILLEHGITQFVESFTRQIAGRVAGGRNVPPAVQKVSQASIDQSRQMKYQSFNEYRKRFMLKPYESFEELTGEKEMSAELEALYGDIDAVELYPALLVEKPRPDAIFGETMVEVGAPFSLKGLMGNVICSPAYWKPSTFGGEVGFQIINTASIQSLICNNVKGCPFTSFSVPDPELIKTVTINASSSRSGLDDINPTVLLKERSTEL
In words: recombinant human COX-2 inhibition, PGE2 measured by UPLC-MS/MS. Type of assay: biochemical.

The structures appear in SMILES notation.

With `Cc1ccc(-c2cc(CNC(=O)CCCCC[N+]3=C(/C=C/C=C/C=C4/N(C)c5ccccc5C4(C)C)C(C)(C)c4ccccc43)nn2-c2ccc(S(N)(=O)=O)cc2)cc1` [CCY-5], the IC50 (in general, the concentration that inhibits the measured activity by half) came to 1.57 µM.
